Data as given in ChEMBL document CHEMBL1201862, “PubChem BioAssay data set” (2004).
Active and inactive are the calls of the source.

Tests used:
[1] = molecular target: Arf-GAP with SH3 domain, ANK repeat and PH domain-containing protein 1 (Homo sapiens, UniProt Q9ULH1); assay type: functional;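 note: biochemical fluorescence polarization dose–response screen measuring inhibition of ASAP1; ASAP1 GAP domain stimulating GTP hydrolysis by truncated human ARF1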
[2] = molecular target: T1, Apoptotic protease-activating factor 1 (Homo sapiens, UniProt O14727); assay type: functional
T1 sequence (O14727 whole entry): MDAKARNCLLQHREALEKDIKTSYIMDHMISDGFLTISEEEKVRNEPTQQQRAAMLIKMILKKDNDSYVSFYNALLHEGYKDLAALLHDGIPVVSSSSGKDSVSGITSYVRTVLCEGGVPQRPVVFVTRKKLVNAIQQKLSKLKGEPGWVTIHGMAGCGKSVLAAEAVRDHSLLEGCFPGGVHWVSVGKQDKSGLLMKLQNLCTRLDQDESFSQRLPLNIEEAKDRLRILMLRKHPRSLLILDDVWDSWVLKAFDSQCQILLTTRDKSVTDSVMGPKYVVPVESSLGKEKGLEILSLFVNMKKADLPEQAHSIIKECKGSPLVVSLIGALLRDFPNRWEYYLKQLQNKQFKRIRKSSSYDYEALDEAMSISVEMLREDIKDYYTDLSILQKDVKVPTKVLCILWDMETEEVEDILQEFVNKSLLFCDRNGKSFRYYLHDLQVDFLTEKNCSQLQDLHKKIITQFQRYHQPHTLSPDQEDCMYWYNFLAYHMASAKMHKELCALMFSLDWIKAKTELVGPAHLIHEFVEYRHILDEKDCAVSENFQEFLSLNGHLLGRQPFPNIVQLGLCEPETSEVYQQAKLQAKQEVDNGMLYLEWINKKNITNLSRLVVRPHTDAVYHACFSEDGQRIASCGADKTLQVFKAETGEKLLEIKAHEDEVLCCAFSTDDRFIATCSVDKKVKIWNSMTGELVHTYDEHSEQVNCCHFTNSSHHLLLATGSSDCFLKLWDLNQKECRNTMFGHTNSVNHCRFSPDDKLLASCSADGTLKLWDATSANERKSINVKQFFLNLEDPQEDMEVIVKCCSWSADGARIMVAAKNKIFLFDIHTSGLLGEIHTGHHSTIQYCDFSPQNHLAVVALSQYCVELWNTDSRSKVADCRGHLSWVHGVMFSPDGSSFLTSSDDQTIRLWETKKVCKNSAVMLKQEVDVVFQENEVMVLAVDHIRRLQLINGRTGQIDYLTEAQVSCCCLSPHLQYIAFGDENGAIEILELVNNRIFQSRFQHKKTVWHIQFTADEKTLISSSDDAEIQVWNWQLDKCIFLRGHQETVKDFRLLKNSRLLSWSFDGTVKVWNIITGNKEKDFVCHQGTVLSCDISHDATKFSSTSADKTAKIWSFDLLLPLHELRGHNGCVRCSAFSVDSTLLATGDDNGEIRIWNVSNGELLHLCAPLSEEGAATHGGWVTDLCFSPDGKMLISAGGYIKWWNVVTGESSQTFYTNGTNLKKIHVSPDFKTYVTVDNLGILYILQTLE

[3] = molecular target: Adenosylmethionine-8-amino-7-oxononanoate aminotransferase (Mycobacterium tuberculosis, UniProt P9WQ81); test: Mycobacterium tuberculosis BioA enzyme inhibitor Measured in Biochemical System Using Plate Reader - 2163-02_Inhibitor_Dose_CherryPick_Activity.; assay type: functional, Mycobacterium tuberculosis UT205
[4] = molecular target: T2, Sentrin-specific protease 1 (Homo sapiens, UniProt Q9P0U3); test: Dose response confirmation of small molecule inhibitors of the catalytic domain of the SUMO protease, SENP1 in a FRET assay.; assay type: functional; conditions: read-out: IC50_Mean
T2 sequence (Q9P0U3 whole entry): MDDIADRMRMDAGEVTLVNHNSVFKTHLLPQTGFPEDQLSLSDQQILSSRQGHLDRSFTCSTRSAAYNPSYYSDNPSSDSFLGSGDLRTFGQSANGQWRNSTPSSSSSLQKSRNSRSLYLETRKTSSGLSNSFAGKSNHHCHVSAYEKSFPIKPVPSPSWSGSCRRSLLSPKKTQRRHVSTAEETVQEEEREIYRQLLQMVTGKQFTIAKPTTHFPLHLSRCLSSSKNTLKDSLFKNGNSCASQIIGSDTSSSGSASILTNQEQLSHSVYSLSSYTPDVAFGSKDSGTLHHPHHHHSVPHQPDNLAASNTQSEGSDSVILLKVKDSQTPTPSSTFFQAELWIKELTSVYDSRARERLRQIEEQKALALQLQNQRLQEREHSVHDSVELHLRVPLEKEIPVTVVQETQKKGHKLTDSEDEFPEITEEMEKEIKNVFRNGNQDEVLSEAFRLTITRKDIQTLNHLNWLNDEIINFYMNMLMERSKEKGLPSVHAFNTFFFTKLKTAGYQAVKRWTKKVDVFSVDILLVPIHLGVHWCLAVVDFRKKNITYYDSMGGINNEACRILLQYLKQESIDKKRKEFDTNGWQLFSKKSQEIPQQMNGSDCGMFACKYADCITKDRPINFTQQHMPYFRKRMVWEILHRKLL

[5] = molecular target: T2, Sentrin-specific protease 1; test: SENP1 catalytic domain blockers, concentration series – biochemical, kinetic FRET, dose response (AID 651697); assay type: functional; conditions: read-out: IC50_Mean
[6] = molecular target: T3, DNA repair and recombination protein RAD54-like (Homo sapiens, UniProt Q92698); test: RAD54 Holliday junction migration blockers – biochemical, fluorescence, cherry-picked samples, dose series, confirmation (AID 651657); assay type: functional
T3 sequence (Q92698 whole entry): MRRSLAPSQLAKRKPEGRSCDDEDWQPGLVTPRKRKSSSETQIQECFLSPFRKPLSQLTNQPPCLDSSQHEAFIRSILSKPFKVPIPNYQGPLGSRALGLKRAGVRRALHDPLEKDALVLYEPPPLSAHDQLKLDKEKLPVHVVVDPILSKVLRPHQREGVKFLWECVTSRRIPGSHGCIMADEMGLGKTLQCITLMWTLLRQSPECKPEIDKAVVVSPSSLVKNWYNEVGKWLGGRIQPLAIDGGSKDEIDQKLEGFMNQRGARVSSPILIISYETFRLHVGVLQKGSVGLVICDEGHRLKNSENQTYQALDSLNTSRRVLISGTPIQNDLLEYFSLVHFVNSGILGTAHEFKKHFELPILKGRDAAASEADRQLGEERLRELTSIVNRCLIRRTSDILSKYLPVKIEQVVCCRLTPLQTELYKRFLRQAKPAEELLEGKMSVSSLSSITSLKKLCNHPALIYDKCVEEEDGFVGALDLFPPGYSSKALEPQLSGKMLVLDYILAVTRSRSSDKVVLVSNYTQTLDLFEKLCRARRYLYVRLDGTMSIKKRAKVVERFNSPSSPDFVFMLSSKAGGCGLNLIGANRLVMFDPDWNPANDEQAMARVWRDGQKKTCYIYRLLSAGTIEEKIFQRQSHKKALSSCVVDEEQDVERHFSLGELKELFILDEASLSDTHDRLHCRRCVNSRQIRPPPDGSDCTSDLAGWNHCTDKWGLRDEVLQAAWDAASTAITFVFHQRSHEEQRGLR

Interleukin-8 = molecular target: T4, Interleukin-8 (Homo sapiens, UniProt P10145); test: Dose Response confirmation of uHTS small molecule hits for cystic fibrosis induced NFkb Inhibitors in a PAF-induced IL8 counterscreen.; assay type: functional; conditions: read-out: IC50_Mean
T4 sequence (P10145 whole entry): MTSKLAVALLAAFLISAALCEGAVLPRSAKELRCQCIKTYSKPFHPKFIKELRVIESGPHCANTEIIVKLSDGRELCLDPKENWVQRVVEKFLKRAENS

Insulin-degrading enzyme [7] = molecular target: T5, Insulin-degrading enzyme (Homo sapiens, UniProt P14735); test: cellular IDE activation of Abeta substrate cleavage – fluorescence polarization, HEK cells, dose response (AID 588439); assay type: functional, cell-based
T5 sequence (P14735 whole entry): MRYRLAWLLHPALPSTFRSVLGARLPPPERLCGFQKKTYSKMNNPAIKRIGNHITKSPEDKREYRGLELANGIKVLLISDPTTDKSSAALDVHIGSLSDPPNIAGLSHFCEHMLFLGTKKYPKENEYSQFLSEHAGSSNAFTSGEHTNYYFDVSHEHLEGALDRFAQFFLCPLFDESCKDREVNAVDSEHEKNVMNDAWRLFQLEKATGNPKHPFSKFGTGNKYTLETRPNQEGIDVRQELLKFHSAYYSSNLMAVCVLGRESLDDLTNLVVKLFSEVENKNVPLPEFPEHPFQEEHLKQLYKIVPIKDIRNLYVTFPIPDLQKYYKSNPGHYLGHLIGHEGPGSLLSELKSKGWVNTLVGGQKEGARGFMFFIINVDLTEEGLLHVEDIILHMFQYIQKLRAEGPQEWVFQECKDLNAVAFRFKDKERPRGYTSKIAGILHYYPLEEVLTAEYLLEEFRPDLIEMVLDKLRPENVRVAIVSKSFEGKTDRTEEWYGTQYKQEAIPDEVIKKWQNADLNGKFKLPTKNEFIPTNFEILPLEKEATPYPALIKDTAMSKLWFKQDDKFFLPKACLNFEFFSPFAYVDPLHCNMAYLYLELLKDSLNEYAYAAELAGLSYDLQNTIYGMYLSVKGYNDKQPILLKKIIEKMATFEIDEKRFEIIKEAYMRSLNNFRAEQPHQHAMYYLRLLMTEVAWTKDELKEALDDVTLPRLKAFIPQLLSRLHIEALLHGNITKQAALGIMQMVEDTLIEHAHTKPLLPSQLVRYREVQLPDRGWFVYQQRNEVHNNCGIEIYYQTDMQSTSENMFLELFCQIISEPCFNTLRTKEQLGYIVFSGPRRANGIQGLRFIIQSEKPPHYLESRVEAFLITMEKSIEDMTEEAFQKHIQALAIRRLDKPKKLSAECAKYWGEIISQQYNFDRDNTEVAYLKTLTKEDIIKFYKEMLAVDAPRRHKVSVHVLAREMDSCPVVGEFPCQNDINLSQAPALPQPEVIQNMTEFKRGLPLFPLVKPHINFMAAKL

HEK293 [8] = test: optical interference in Abeta FP readout, dose response, artefact control for IDE activator project, biochemical, fluorescence polarization (AID 588442); assay type: functional, cell-based; conditions: Homo sapiens
Insulin-degrading enzyme [9] = molecular target: T5, Insulin-degrading enzyme; test: recombinant IDE activation, cell-free – biochemical, fluorescence polarization, counter-screen for IDE activator project, dose response (AID 588681)
HEK293 [10] = test: membrane integrity loss in HEK cells – cell-based, fluorescence, cytotoxicity control for IDE activator project, dose response (AID 588440); assay type: functional; conditions: Homo sapiens;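 note: cytotoxicity by LDH release measuring loss of membrane integrity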
Fatty acid synthase [11] = molecular target: T6, Fatty acid synthase (Homo sapiens, UniProt P49327); test: inhibition of human FAS-TE enzyme activity – biochemical, endpoint fluorescence intensity, uHTS hits, dose response (AID 624327); assay type: functional;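 note: fluorescence from hydrolysis of an O-methyl fluorescein acyl ester substrate by the enzyme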
[12] = Fluorescence-based cell-based high throughput dose response assay for inhibitors of the interaction of nucleotide-binding oligomerization domain containing 2 (NOD2) and the receptor-interacting serine-threonine kinase 2 (RIPK2).; assay type: functional; conditions: Homo sapiens
Fatty acid synthase [13] = molecular target: T6, Fatty acid synthase; test: inhibition of human FAS-TE enzyme activity – biochemical, kinetic fluorescence intensity, dose response (AID 624326); assay type: functional;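 note: rate of fluorescence rise from hydrolysis of a fluorogenic O-methyl fluorescein ester substrate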
Streptococcus = test: GAS UMAA2166 growth inhibition – luminescence, BacTiterGlo, counter-screen for streptokinase expression inhibitor project, dose response (AID 1915); assay type: functional, organism-based;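 note: potency for reduction of bacterial viability or growth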
Streptokinase A = molecular target: T7, Streptokinase A (Streptococcus pyogenes serotype M1, UniProt P10520); test: viability-normalized secreted streptokinase activity reduction – plasminogen activation absorbance, OD405, dose response (AID 1914); assay type: functional, Streptococcus pyogenes M1 GAS;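 note: secreted streptokinase activity via plasminogen activation per viability signal from cell pellet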
T7 sequence (P10520 whole entry): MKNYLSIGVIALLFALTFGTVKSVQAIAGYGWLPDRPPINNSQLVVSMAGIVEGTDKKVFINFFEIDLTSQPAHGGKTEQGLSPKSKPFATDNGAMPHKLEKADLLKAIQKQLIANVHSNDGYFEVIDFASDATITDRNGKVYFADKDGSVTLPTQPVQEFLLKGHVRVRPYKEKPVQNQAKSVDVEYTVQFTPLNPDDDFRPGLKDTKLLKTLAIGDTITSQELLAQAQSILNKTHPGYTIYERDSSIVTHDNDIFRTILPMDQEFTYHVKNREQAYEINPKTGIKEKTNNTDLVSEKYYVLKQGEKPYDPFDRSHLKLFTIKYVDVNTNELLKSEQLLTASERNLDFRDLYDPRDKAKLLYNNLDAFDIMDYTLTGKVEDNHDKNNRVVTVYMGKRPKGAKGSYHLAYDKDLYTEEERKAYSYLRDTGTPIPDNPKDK

[14] = test system: Streptococcus sp. 'group A'; test: Streptococcus pyogenes SK(-)GAS viability under kanamycin – luminescence, BacTiterGlo, confirmation, counter-screen for streptokinase expression inhibitor project, dose response (AID 1900); assay type: functional, organism-based
[15] = Luminescence Cell-Based Dose Retest to Confirm Inhibitors of Cancer Stem Cells. [Related pubchem assays (depositor defined):AID2717, AID2721]; assay type: functional; conditions: Homo sapiens

Sequence of Arf-GAP with SH3 domain, ANK repeat and PH domain-containing protein 1 (Q9ULH1 whole entry, the tested form may be a part): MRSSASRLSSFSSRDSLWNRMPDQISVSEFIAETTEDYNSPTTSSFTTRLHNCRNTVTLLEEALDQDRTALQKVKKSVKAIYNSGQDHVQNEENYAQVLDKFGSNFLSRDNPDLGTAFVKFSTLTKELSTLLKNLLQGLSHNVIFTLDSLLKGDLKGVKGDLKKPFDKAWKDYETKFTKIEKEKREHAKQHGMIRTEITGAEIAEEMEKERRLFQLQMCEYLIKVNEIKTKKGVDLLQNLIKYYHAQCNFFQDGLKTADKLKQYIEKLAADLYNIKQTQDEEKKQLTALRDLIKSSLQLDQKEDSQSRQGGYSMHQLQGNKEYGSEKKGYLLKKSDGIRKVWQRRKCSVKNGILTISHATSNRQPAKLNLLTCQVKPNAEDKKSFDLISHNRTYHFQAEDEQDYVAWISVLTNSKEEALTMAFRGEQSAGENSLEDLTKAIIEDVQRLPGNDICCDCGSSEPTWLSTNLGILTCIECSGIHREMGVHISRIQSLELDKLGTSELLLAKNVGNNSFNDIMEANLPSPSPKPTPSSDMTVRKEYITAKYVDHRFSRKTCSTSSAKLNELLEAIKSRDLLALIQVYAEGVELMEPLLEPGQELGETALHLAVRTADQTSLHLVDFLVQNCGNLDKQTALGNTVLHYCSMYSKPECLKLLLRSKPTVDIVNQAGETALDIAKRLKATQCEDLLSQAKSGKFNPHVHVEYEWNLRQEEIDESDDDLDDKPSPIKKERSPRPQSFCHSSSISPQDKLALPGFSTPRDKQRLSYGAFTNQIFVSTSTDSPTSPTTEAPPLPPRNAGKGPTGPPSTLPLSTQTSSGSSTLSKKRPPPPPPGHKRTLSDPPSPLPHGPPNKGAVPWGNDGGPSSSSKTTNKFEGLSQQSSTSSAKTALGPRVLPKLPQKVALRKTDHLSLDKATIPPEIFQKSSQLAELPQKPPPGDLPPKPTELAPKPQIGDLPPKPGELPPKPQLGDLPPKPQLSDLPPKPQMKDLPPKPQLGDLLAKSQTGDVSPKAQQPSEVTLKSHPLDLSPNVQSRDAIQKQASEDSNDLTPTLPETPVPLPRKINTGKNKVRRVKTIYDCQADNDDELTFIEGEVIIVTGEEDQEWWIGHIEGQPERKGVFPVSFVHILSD
Sequence of Adenosylmethionine-8-amino-7-oxononanoate aminotransferase (P9WQ81 whole entry, the tested form may be a part): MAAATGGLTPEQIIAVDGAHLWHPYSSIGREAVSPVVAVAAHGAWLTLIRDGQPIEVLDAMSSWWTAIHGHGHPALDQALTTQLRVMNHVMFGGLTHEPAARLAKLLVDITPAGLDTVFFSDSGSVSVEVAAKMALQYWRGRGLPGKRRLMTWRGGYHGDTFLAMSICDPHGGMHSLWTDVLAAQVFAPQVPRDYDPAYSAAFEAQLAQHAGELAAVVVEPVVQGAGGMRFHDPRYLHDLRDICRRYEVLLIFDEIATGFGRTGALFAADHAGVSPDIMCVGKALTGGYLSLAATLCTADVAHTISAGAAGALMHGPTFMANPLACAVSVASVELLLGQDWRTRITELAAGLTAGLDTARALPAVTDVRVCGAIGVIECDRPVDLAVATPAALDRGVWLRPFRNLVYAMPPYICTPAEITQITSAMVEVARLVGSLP
T6 sequence (P49327 whole entry, the tested form may be a part): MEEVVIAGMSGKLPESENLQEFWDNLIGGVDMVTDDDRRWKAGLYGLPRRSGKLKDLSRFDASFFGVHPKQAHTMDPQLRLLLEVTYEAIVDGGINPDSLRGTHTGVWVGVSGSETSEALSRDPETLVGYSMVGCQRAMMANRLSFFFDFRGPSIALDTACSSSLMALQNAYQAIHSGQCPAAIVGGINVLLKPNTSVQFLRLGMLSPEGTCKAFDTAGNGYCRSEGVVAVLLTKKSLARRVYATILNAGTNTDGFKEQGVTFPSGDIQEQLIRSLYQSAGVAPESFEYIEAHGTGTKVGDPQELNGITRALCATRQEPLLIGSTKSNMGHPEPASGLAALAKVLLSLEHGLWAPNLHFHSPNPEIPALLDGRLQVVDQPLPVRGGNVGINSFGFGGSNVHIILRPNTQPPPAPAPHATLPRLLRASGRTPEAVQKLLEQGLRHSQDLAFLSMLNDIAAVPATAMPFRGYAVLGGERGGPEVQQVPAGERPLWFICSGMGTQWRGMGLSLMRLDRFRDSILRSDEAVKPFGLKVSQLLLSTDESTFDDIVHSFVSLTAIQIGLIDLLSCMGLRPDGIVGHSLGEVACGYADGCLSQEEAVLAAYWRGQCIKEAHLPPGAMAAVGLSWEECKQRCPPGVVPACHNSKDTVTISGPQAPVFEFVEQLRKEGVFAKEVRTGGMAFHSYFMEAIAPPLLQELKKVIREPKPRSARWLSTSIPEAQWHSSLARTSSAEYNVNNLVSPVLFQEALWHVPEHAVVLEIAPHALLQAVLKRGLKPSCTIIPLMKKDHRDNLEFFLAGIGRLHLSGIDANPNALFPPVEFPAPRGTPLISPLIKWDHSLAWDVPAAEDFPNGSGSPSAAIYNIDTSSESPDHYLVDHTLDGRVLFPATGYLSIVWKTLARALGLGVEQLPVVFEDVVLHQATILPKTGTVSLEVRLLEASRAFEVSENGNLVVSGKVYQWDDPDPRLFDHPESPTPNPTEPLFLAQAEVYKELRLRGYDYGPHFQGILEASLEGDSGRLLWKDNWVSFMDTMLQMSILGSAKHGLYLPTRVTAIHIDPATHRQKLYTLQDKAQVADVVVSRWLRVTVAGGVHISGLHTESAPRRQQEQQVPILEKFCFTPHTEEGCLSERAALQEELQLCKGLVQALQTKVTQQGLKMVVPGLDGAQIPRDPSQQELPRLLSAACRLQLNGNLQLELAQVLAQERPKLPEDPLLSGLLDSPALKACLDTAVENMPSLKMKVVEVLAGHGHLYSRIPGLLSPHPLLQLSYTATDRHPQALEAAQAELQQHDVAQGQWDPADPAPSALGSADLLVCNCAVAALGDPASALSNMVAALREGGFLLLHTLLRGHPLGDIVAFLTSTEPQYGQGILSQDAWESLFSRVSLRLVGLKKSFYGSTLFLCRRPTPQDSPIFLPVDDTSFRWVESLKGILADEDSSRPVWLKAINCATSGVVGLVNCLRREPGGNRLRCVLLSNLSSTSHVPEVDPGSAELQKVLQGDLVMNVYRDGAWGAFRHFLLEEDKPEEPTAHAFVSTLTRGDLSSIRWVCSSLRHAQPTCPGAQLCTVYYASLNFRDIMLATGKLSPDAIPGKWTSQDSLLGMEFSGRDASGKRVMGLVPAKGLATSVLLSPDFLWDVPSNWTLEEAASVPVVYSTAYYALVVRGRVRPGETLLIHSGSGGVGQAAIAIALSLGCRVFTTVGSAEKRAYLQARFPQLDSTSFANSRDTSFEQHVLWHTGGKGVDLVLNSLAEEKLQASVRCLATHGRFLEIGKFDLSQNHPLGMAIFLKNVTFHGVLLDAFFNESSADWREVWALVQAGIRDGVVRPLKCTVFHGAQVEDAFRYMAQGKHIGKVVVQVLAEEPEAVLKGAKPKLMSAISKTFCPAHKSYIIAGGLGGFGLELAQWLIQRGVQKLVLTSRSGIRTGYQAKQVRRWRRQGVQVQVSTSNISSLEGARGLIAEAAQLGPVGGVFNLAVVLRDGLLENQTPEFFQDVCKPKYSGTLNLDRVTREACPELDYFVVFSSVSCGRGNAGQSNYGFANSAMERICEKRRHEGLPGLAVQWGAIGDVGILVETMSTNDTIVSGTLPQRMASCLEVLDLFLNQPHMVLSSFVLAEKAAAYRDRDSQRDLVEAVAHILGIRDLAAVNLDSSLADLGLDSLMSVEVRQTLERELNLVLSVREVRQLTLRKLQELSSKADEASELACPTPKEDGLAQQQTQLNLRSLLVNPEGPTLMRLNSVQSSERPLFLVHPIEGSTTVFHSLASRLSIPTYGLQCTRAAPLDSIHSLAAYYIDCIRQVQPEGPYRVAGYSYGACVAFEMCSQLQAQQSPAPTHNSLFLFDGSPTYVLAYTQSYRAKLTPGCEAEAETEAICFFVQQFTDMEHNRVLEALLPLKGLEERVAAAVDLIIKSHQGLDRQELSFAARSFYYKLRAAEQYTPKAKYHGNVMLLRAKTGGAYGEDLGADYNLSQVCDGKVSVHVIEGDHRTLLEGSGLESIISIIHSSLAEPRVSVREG

## O=C(CSc1ccccc1)Nc1ccc(-c2nc3ccccc3[nH]2)cc1
[1]
  IC50: 14.7 µM (inactive)

## CCCN(CC(=O)Nc1ccccc1C)C(=O)CCCOc1ccc(Br)cc1
[2]
  IC50: > 100 µM (inactive)

## Cc1nc2nc(SCC(=O)N3CCOCC3)nn2c(C)c1Cc1ccccc1
[3]
  AC50: 0.43 µM (active)

## COc1cccc2c1-c1c(O)cccc1C2=O
[4]
  IC50: 18.6 µM (active)
[5]
  IC50: 37.7 µM (inactive)
[6]
  AC50: 66.7 µM (active)

## Cc1c(-c2ccccc2)oc2c(C(=O)N3CCN(c4ccc([N+](=O)[O-])cc4)CC3)cccc2c1=O
Interleukin-8
  IC50: 40.2 µM (inactive)

## CN1CCN(C2=Nc3c(Cl)cc(Cl)c4cccc2c34)CC1
[4]
  IC50: 10.2 µM (active)
[5]
  IC50: 6.95 µM (active)

## CSc1ccccc1OCc1cc(C(=O)NCCn2nc(C)cc2C)no1
Insulin-degrading enzyme [7]
  EC50: > 54.7 µM (inactive)
HEK293 [8]
  EC50: > 54.7 µM (inactive)
Insulin-degrading enzyme [9]
  EC50: > 54.7 µM (inactive)
HEK293 [10]
  IC50: > 89.2 µM (inactive)

## C/C=C/c1ccc2c(c1)O[C@@H](CN(C)C(=O)Nc1ccc(OC)cc1)[C@@H](C)CN([C@@H](C)CO)S2(=O)=O
[3]
  AC50: 2.08 µM (active)

## CCOC(=O)[C@]12Cc3cc(OC)ccc3[C@H]1N(C1CCCCC1)C(=O)c1ccccc12
Fatty acid synthase [11]
  IC50: 8.86 µM (active)
[12]
  IC50: 2.5 µM (active)
Fatty acid synthase [13]
  IC50: 6.5 µM (active)

## O=C(N/N=C/c1cccnc1)c1cc2c(ccc3ccccc32)o1
[1]
  IC50: 19.9 µM (inactive)

## CC(C)=CCCC1(C)C=Cc2c(c(C)cc3c2[nH]c2cc(O)ccc23)O1 (stereo unspecified)
Insulin-degrading enzyme [7]
  EC50: 41 µM (inactive)
HEK293 [8]
  EC50: > 55.9 µM (inactive)
Insulin-degrading enzyme [9]
  EC50: > 54.7 µM (inactive)
HEK293 [10]
  IC50: 15.3 µM (inactive)
Streptococcus
  EC50: 5.07 µM (active)
Streptokinase A
  EC50: > 150 µM (not active)
[14]
  EC50: 2.61 µM (active)
[15]
  AC50: 5.38 µM (active)
